Laboratory results published in BindingDB's records for doi:10.1016/s0960-894x(01)00493-0 (National Cancer Institute-Frederick, 2001).

Biological target: Urokinase-type plasminogen activator (Homo sapiens) (UniProt P00749)
Assay: Compound was tested for microPa) Urokinase-type plasminogen activator from human urine

Compound: CC[C@H](C)[C@@H]1NC(=O)[C@@H]2CCCN2C(=O)[C@@H]2CCCN2C(=O)[C@H]([C@@H](C)CC)NC(=O)[C@H](CO)NC(=O)[C@H](CCCCN)NC(=O)[C@H]([C@@H](C)O)NC(=O)[C@@H]2CSSC[C@H](NC1=O)C(=O)N[C@@H](Cc1ccccc1)C(=O)N1CCC[C@H]1C(=O)N[C@@H](CC(=O)O)C(=O)NCC(=O)N[C@@H](CCCNC(=N)N)C(=O)N2
- Ki: 500 µM
